The source made the active and inactive calls.
Legend:
[1] = target: T1, Tyrosine-protein phosphatase non-receptor type 7 (Homo sapiens, UniProt P35236); experiment: inhibitors of human HePTP phosphatase, […], biochemical, absorbance, leukemia target (AID 521); type: functional
T1 sequence (P35236 whole entry): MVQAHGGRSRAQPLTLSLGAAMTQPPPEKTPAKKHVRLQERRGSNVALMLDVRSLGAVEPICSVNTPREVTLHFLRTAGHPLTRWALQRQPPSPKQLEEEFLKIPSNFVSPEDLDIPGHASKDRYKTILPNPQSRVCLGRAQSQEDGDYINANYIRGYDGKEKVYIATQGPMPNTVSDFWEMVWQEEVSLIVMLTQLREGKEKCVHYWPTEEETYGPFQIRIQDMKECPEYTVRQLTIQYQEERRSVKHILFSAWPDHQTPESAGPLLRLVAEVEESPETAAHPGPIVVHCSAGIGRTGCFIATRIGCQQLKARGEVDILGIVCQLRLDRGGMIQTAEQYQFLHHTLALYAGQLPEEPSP

[2] = Luminescence Cell-Based Dose Response to Identify Activators of 5'UTR Stem-Loop Driven Prion Protein mRNA Translation in H4-C Neuroglioblastoma Cells. [Related pubchem assays: 1829 (Project Summary), 1814 (Primary HTS)]; type: functional
[3] = Luminescence Cell-Based Dose Confirmation HTS to Identify Activators of 5'UTR Stem-Loop Driven Alpha-Synuclein mRNA Translation in H4 Neuroglioblastoma Cells. [Related pubchem assays: 1829 (Project Summary), 1814 (Primary HTS)]; type: functional
[4] = Luminescence Cell-Based Dose Response HTS to Identify Activators of Luciferase Translation or Activity in H4 […] Cells. [Related pubchem assays: 1829 (Project Summary), 1814 (Primary HTS)]; type: functional
[5] = Luminescence Cell-Based Dose Response to Identify Activators of Luciferase Translation or Activity in H4-C Neuroglioblastoma Cells. [Related pubchem assays: 1829 (Project Summary), 1814 (Primary HTS)]; type: functional
[6] = Luminescence Cell-Based Dose Confirmation to Identify Activators of 5'UTR Stem-Loop Driven Alpha-Synuclein mRNA Translation in H4 Neuroglioblastoma Cells. [Related pubchem assays: 1829 (Project Summary), 1814 (Primary HTS)]; type: functional
Genome polyprotein = Genome polyprotein (Hepatitis C virus, UniProt Q2Q167); experiment: HCV core protein dimerization inhibitors, dose response, biochemical, TR-FRET (AID 2159); design: species or system Hepacivirus hominis;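 further: blocks dimerization of HCV core protein measured by TR-FRET between tagged core106 pairs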
Bcl-2-like protein 10 = Bcl-2-like protein 10 (Homo sapiens, UniProt Q9HD36); experiment: displacers of TR3 peptide from Bcl-B, primary screen, selectivity assay for Bfl-1 inhibitor project, biochemical, fluorescence polarization, FITC-TR3 peptide (AID 748);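 further: fluorescence polarization from a fluorescein-labelled TR3 peptide binding purified Bcl-B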
[7] = A Cell Based Secondary Assay To Explore Cytotoxicity of Compounds that Sensitize Mycobacterium Tuberculosis to Beta-Lactam Antibiotics.; type: functional
[8] = target: T2, Induced myeloid leukemia cell differentiation protein Mcl-1 (Homo sapiens, UniProt Q07820); experiment: MCL1-BIM BH3 interaction inhibitors, dose response, biochemical, fluorescence polarization, BIM-BH3 peptide, 1536-well (AID 2217)
Estrogen receptor beta [9] = target: T3, Estrogen receptor beta (Homo sapiens, UniProt Q92731);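 further: recombinant ER-beta bound to coactivator SRC1 peptide in presence of estradiol agonist; inhibitors block coactivator peptide binding and lower the FRET signal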
Estrogen receptor beta [10] = target: T3, Estrogen receptor beta; experiment: ERβ–SRC-3 coactivator interaction inhibitors, confirmation, orthogonal assay, biochemical, ELISA, streptavidin-HRP readout (AID 1060)
Bcl-2-like protein 1 = Bcl-2-like protein 1 (Homo sapiens, UniProt Q07817); experiment: BCL-XL inhibitors, dose response, selectivity assay for MCL1 inhibitor project, biochemical, fluorescence polarization, 1536-well (AID 2218)
[11] = target: T2, Induced myeloid leukemia cell differentiation protein Mcl-1; type: functional
SUMO E1/E2 = SUMO E1/E2 (Homo sapiens, UniProt P63279+Q9UBE0+Q9UBT2); experiment: SAR analysis of SUMOylation using HTRF in an in-Vitro dose response assay. [Related pubchem assays (depositor defined):AID2006, AID2011, AID2018, AID2069, AID2658]; type: functional
[12] = target: T4, Voltage-gated N-type calcium channel alpha-1B subunit/Amyloid beta A4 precursor protein-binding family A member 1 (Homo sapiens, UniProt Q00975+Q02410); experiment: disruptors of Mint-PDZ/N-type channel peptide interaction – biochemical, HTRF, set 2, SAR follow-up (AID 434980); type: functional
[13] = target: T4, Voltage-gated N-type calcium channel alpha-1B subunit/Amyloid beta A4 precursor protein-binding family A member 1; experiment: disruptors of Mint-PDZ/N-type channel peptide interaction – biochemical, HTRF, SAR follow-up (AID 2489); type: functional
[14] = inhibitors of firefly luciferase expression or activity, dose response, H4 neuroglioma cells, luminescence (AID 1990); type: functional, cell-based
[15] = Luminescence Cell-Based Dose Response HTS to Identify Inhibitors of 5'UTR Stem-Loop Driven Prion Protein mRNA Translation in H4 Neuroglioblastoma Cells. [Related pubchem assays: 1827 (Project Summary), 1813 (Primary HTS)]; type: functional
[16] = inhibitors of SNCA 5'UTR-driven reporter translation, confirmation, H4 neuroglioma cells, luminescence (AID 1988); type: functional, cell-based
[17] = A High Throughput Confirmatory Assay used to Identify Novel Compounds that Inhibit Mycobacterium Tuberculosis in the absence of Glycerol.; type: functional
[18] = microbe, parasite or virus in culture; type: functional; conditions: Mycobacterium tuberculosis
[19] = target: T5, Heat shock factor protein 1 (Mus musculus, UniProt P38532); experiment: inhibition of MG132-induced HSE-luciferase signal, confirmation, cell-based, NIH3T3, luminescence, dose retest (AID 2382); type: functional;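 further: NIH3T3 fibroblasts with HSF1-driven luciferase reporter stressed by proteasome inhibitor MG132; luminescence from HSF1-driven luciferase expression after 8 hours of MG132 stress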
T5 sequence (P38532 whole entry): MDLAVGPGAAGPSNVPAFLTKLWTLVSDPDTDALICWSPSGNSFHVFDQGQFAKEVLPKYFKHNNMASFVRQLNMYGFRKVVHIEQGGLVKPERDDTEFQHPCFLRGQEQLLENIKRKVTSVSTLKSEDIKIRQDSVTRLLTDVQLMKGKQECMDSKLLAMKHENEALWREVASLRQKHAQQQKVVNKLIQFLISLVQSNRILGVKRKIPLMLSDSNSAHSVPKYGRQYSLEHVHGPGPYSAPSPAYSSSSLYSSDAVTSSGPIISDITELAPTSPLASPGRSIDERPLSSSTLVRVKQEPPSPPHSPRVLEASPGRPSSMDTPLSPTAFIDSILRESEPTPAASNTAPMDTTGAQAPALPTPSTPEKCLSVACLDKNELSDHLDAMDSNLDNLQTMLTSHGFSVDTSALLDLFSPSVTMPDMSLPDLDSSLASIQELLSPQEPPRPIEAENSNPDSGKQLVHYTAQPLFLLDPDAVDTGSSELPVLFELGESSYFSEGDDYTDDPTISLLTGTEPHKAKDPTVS

Prothrombin = Prothrombin (Homo sapiens, UniProt P00734); experiment: Thrombin 1536 HTS Dose Response Confirmation. [Related pubchem assays: 1046 (Thrombin 1536 HTS; hits were confirmed in this assay)]; type: functional
[20] = target: Heat shock protein HSP 90-alpha (Homo sapiens, UniProt P07900); experiment: Luminescence-based dose response biochemical high throughput screening assay for inhibitors of the Heat Shock Protein 90 (HSP90). [Related pubchem assays: 1831 (Summary AID.), 1846 (Confirmation screen.), 1789 (Primary screen.)]
[21] = target: T6, Microphthalmia-associated transcription factor (Homo sapiens, UniProt O75030); experiment: TRPM1 promoter luciferase signal decrease, dose response, MITF inhibitor project, cell-based, SK-MEL-5, cherry-picked, set 3 (AID 493073); type: functional
T6 sequence (O75030 whole entry): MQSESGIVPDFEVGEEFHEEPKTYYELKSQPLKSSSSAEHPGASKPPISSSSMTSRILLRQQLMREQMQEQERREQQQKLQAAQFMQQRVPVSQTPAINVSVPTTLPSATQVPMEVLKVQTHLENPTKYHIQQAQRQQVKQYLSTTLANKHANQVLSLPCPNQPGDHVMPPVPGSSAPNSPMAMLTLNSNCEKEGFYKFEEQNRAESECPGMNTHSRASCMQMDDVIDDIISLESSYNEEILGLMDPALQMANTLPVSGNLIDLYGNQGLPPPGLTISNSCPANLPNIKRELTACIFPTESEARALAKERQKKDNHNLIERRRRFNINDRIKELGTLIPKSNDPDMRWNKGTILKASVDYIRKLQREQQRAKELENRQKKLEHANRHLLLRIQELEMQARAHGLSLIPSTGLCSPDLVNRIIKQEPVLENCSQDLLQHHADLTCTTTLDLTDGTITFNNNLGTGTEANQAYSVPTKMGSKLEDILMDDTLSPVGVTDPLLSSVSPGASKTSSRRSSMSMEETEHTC

Mucolipin-3 = Mucolipin-3 (Homo sapiens, UniProt Q8TDD5); experiment: Dose response cell-based high-throughput screening assay for agonists of the transient receptor potential channel ML3 (TRPML3). [Related pubchem assays: 1526, 1424, 1448 ]; type: functional
Ion channel NompC = Ion channel NompC (Danio rerio, UniProt Q7T1G6); experiment: Fluorescence counterscreen assay for TRPML3 agonists: dose response cell-based high-throughput screening assay to identify agonists of the transient receptor potential channel N1 (TRPN1). [Related pubchem assays: 1526, 1424, 1448 ]; type: functional

T4 sequence (Q00975 whole entry): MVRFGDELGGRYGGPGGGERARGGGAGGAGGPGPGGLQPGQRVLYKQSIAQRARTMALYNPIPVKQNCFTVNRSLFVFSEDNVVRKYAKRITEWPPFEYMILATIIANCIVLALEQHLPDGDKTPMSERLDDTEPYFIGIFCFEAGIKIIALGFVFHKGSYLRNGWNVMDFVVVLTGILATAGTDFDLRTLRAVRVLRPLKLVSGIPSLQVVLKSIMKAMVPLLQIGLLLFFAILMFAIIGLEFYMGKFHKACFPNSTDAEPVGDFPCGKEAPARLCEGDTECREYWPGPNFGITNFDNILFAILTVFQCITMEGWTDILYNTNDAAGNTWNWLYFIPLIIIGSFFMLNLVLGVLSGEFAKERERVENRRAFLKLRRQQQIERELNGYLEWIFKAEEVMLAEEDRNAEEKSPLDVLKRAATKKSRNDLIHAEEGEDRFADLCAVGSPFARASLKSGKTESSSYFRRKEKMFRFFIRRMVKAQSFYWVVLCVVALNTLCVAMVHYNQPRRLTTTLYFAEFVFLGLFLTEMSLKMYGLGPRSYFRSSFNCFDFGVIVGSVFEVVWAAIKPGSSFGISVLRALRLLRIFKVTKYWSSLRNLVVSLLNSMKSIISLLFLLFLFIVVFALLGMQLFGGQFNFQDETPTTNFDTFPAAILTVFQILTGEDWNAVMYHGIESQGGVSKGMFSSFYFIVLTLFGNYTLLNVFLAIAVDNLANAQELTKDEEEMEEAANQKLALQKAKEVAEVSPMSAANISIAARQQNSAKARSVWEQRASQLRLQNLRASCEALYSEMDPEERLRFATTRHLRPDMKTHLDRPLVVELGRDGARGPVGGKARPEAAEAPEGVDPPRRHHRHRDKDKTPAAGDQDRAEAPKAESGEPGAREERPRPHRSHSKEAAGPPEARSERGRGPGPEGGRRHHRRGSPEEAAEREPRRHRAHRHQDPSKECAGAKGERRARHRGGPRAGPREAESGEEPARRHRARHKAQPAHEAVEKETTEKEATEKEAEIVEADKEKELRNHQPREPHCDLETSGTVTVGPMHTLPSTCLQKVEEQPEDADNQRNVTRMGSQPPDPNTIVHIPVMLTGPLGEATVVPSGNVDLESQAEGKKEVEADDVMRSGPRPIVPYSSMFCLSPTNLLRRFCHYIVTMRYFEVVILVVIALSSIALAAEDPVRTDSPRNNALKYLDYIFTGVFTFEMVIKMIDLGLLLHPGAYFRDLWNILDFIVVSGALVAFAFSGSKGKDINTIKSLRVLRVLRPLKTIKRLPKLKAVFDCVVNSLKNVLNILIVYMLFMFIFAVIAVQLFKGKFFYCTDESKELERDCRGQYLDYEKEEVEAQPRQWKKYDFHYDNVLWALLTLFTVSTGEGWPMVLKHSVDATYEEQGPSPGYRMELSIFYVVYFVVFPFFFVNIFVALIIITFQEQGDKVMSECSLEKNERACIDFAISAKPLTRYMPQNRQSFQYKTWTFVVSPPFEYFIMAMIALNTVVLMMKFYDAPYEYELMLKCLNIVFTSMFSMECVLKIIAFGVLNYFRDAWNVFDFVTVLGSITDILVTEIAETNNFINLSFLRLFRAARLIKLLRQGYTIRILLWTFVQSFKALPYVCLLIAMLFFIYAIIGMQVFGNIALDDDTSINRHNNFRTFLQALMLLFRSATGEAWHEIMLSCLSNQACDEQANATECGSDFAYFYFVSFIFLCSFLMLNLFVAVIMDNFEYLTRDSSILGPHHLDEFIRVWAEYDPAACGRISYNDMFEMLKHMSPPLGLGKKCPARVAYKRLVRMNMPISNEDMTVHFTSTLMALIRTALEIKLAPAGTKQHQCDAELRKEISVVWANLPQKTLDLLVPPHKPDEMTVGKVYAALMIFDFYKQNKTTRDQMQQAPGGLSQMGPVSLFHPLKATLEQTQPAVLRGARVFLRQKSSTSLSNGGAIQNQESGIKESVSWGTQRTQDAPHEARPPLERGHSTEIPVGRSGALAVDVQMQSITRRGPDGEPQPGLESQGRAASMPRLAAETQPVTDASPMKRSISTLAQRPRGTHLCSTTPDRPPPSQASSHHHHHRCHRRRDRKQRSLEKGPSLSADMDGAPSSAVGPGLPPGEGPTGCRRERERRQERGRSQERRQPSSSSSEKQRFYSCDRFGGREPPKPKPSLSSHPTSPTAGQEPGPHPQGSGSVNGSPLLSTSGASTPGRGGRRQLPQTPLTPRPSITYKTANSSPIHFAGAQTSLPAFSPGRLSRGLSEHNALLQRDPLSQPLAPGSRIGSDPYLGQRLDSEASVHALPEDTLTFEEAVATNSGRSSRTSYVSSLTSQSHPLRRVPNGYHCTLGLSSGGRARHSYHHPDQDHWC
T4 sequence (Q02410 whole entry): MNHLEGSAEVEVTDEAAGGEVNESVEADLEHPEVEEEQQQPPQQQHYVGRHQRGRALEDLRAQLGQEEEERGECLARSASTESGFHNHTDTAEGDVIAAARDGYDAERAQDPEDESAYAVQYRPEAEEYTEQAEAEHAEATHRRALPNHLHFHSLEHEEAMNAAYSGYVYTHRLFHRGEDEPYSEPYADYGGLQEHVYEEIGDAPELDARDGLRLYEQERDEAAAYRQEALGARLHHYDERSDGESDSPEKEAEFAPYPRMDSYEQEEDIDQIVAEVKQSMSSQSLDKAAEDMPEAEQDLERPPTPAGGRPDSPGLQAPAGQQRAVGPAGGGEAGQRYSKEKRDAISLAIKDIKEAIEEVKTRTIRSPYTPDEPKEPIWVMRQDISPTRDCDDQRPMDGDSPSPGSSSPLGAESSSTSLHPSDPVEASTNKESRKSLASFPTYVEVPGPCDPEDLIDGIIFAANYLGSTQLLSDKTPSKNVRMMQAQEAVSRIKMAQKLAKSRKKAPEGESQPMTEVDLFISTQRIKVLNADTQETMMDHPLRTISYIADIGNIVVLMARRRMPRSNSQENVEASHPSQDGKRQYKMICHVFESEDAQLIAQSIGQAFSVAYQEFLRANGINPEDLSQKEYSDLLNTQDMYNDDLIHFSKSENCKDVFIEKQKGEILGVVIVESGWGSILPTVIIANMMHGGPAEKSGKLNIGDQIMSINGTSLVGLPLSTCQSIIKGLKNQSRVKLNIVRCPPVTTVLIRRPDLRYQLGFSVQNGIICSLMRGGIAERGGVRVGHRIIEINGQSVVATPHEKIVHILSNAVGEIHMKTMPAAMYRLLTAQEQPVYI
T3 sequence (Q92731 whole entry): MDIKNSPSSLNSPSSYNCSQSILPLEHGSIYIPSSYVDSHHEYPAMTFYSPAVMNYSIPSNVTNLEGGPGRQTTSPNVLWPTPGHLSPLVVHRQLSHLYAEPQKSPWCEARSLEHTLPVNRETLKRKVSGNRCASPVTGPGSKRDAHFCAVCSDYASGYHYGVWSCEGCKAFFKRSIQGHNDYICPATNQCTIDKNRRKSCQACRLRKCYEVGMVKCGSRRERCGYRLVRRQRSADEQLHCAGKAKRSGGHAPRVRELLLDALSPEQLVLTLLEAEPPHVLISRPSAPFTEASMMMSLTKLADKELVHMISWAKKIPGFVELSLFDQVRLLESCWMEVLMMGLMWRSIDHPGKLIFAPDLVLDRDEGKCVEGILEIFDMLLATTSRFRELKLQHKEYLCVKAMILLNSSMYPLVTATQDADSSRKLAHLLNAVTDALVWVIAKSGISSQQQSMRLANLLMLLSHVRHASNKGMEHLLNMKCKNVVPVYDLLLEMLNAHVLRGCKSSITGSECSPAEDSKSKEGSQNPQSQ
T2 sequence (Q07820 whole entry): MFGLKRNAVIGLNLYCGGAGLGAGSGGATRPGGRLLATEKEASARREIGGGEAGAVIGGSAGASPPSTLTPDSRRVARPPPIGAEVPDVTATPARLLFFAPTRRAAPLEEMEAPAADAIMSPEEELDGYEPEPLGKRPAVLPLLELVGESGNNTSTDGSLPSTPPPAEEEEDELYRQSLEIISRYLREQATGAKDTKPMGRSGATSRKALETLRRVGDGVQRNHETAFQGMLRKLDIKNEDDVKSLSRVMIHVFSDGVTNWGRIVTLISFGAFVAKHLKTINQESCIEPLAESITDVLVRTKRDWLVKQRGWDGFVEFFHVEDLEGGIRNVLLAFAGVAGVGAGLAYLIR
Sequence of Genome polyprotein (Q2Q167 whole entry): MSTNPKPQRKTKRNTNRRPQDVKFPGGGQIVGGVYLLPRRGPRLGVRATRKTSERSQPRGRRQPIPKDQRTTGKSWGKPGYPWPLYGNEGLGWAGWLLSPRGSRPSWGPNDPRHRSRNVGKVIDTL
Sequence of Mucolipin-3 (Q8TDD5 whole entry): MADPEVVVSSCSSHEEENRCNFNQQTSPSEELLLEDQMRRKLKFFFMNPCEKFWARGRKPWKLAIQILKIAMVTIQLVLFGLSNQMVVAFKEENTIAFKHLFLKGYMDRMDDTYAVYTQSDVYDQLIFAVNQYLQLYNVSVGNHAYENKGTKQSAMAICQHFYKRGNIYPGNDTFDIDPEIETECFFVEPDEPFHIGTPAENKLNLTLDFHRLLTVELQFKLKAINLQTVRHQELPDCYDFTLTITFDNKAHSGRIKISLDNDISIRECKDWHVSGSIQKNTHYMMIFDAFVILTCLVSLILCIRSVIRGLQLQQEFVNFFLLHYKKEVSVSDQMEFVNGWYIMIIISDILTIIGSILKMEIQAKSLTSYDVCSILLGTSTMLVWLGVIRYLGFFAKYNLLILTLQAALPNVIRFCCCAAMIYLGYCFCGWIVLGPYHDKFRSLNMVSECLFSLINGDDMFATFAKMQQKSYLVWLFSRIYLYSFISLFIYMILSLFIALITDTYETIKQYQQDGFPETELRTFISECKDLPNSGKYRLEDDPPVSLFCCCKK
Sequence of Bcl-2-like protein 10 (Q9HD36 whole entry): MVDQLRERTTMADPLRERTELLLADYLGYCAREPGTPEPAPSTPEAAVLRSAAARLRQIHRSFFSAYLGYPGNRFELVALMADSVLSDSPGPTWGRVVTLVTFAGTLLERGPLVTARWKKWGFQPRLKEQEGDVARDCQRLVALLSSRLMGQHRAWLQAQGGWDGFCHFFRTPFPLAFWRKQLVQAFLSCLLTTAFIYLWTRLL

O=C(Nc1cc(C(F)(F)F)ccc1Cl)C1CCN(c2nnc(-n3cccc3)s2)CC1
IC50 [1]: > 100 µM (not active)

O=C(NC1CCCCCC1)c1ccc(CN2CCOCC2)cc1
EC50 [2]: 0.889 µM (active)
EC50 [3]: < 0.1 µM (active)
EC50 [4]: 17.5 µM (active)
EC50 [5]: 0.67 µM (active)
EC50 [6]: 0.406 µM (active)

O=C(OCC(=O)N1CCN(C(=O)c2ccco2)CC1)c1cc(-c2ccco2)nc2ccccc12
IC50 (Genome polyprotein): > 49.8 µM (not active)
IC50 (Bcl-2-like protein 10): 12 µM (active)
CC50 [7]: > 40 µM (active)
IC50 [8]: 6.8 µM (active)
IC50 (Estrogen receptor beta [9]): < 1.56 µM (active)
IC50 (Estrogen receptor beta [10]): > 50 µM (not active)
IC50 (Bcl-2-like protein 1): > 109 µM (not active)
IC50 [11]: 3.96 µM (active)
IC50 (SUMO E1/E2): 1.93 µM (active)
IC50 [12]: 2.86 µM (active)
IC50 [13]: 5.92 µM (active)

CC(C)CNc1nnnc2c1sc1nc(N3CCOCC3)c3c(c12)CC(C)(C)SC3
EC50 [14]: 19.2 µM (active)
EC50 [15]: 35.1 µM (active)
EC50 [16]: 14.3 µM (active)
IC50 [17]: > 100 µM (active)
CC50 [18]: > 40 µM (active)

Cc1ccc2nc(NC(=O)CSCC(=O)OCC(=O)c3ccccc3)sc2c1
EC50 [19]: 1.05 µM (active)
IC50 (Prothrombin): 0.0897 µM (active)
IC50 [20]: 5.17 µM (active)
AC50 [21]: 5.78 µM (active)

COc1ccc(C(C(=O)NC2CCCC2)N(Cc2ccccc2)C(=O)c2nsc(Cl)c2Cl)cc1 (stereo not drawn)
EC50 (Mucolipin-3): > 29.9 µM (not active)
EC50 (Ion channel NompC): > 29.9 µM (not active)

From ChEMBL document CHEMBL1201862, “PubChem BioAssay data set” (2004)
